Patent publication US20100240754A1, “UNSATURATED FATTY AMINO ACID DERIVATIVES AND USE THEREOF IN DERMAL COSMETOLOGY” (Pierre Fabre Demo-Cosmetique, priority 2007, published 2010)
Entries after “also recorded” stand apart in the source; their conditions may differ.

Columns and labels:
[1] = test system: fibroblast cell line L929; assay: In vitro assay of intracellular OASes (H2DCF-DA probe) after H2O2/iron oxidative stress; format: cell-based, murine; conditions: Mus musculus, L929, 3 h pretreatment, H2O2 200 μM / iron 2 mM, read-out: percentage of inhibition of intracellular OAS production (protection); for inhibition at 20 pg/mL: dose 0.02 ng/mL; for inhibition at 0.0002 µg/mL: dose 0.2 ng/mL; for inhibition at 0.002 µg/mL: dose 2 ng/mL; for inhibition at 0.02 µg/mL: dose 20 ng/mL
Excerpt: We have set up a model for an in vitro study of oxidative stress induced by H2O2/iron, H2O2 which massively generates intracellular OASes by a chain reaction triggered by the oxidation of membrane lipids.
This technique is based on the use of a fluorescent probe, 6-carboxy-2′, 7′ dichlorodihydrofluorescein diacetate, di(acetoxymethyl ester) (H2DCF-DA), which, once it has penetrated the cell, is deacetylated by the intracellular esterases then forming H2DCF. This product is oxidized by intracellular OASes into a highly fluorescent compound: 2′,7′-dichlorofluorescein, (DCF) (Suematsu M et al, 1996, Free Radicals Practical Approach, Punchard ed. P83-99).
Cutaneous murine fibroblast cell line L929.
The tested concentrations are non-cytotoxic concentrations. Cytoxicity was evaluated by the neutral red method, after incubation of the product for 3 hours.
The reference anti-radical product is vitamin E or α-tocopherol (MW: 430.7) (SIGMA, ref.: T-1539).
The mother solution is prepared at 400 mg/mL in DMSO and stored at −20° C. The pretreatment solution is prepared extemporaneously at 400 μg/mL in a culture medium without FCS.
For evaluating unsaturated fatty amino acid derivatives, the dilutions are prepared in the culture medium extemporaneously for a range of concentrations of 0.02, 0.2, 2 and 20 ng/mL.
The cells of the fibroblast line L929 are sown in microplates with 96 wells with a flat bottom in 100 μL of DMEM supplemented with 10% of FCS, and they are then incubated overnight at 37° C. in a humid atmosphere with 5% CO2.
The dilutions of the products to be tested and of the reference molecule are conducted in culture mediums without FCS, and then deposited in 7 wells in an amount of 100 μL per well.
The cells are then incubated for 3 hours at 37° C. in a humid atmosphere with 5% CO2.
The cells are rinsed with PBS 1× in an amount of 100 μL per well. Next they are set to incubate for 30 min at 37° C. in a humid atmosphere with 5% CO2 and with 50 μL of H2DCF-DA probe at 5 μM.
After 30 min in contact with the probe alone, the cells are incubated for 30 min at 37° C. in a humid atmosphere with […] with addition of 25 μL of H2O2 at 800 μM and 25 μL of 8 mM ferrous and ferric iron solution, in order to have final concentrations of 200 μM of H2O2 and 2 mM of ferrous and ferric iron.
The cells are then rinsed with PBS 1× in an amount of 100 μL per well, and then incubated for 30 min at 37° C. in a humid atmosphere with 5% CO2 and with 100 μL of PBS 1×.
These 1 h 30 minutes of incubation at 37° C. allow the intracellular esterases to deacetylate the H2DCF probe, oxidizable by intracellular OASes into DCF; a fluorescent compound, the formation of which is proportional to the amount of intracellular OASes.
The fluorescence intensity is read with the cytofluorimeter at λexcitation=485 nm and λemission=530 nm. It reflects the amount of produced intracellular OASes.
With the below ratio, it is possible to calculate for each concentration of tested product the % of protection against production of intracellular OASes (since the fluorescence intensity or FI expresses intracellular release of OASes).
The values indicated in Table 3 are percentages of inhibition of intracellular OAS production following an exogenous oxidative stress, relatively to <> cells (100%) and to <> cells (0%).

fibroblast line L929 = assay: Test of TBARS: lipid peroxidation after H2O2-Fe2+/Fe3+ stress; format: cell-based, murine; conditions: for inhibition at 20 pg/mL: Mus musculus, Dose = 0.02 ng/mL, L929, 16 hours pretreatment, H2O2-Fe2+/Fe3+ (200 μM-1 mM) 1 hour, TBARS, read-out: % of protection of membrane lipids, Average; for antiradical activity and protection of cell membranes, in words: L929, TBARS test, conclusion from Table 4
Excerpt: In order to evaluate membrane alteration, we have measured lipid peroxidation by an assay in vitro of the complexes between lipid oxidation products and thiobarbituric acid. These complexes are called TBARS (Thiobarbituric Acid Reactive Substances) and give the name to the test: Test of TBARS.
In order to mimic a chemical oxidative stress, we treated a fibroblast line, L929, with a complex composed of hydrogen peroxide (H2O2) and of iron (Fe^2+/Fe^3+) thereby regenerating Fenton's reaction, source of FORs and more particularly of hydroxyl radicals)(OH^0) (D. A. Vessey et al., 1992):
The products were evaluated on the murine fibroblast line L929. The cells were pretreated with the different concentrations of products for 16 hours and were then stimulated with the complex H2O2—Fe^2+/Fe^3+ (200 μM-1 mM) for 1 hour.
Mother solutions: 100 mg/mL, ethanol, 4° C. Final solutions: 0.02 ng/mL.
Peroxidation of membrane lipids is analyzed by measuring the TBARS (Procedure Ref. PL No. 2, according to Morlière et al., 1991).
In an acid medium, at 95° C., complexes noted as TBARS for Thio Barbituric Acid Reactive Substance are formed, between the lipid oxidation products (malonic dialdehyde or MDA) and thiobarbituric acid (TBA) which may be assayed by fluorescence relatively to a standard range with MDA. The dosage of the TBARS is then expressed in pmol/μg of proteins. The proteins and the TBARS are assayed in the intracellular medium.
From the calculation of the TBARS in pmol/μg of proteins, we calculated the protective efficiency of different products against oxidation of membrane lipids.
Seven independent experiments were conducted. During these experiments, various compounds were evaluated (with the test, it is not possible to evaluate more than 10 molecules at the same time). The compounds which were evaluated several times were selected according to the results obtained in the other test also measuring antiradical activity (test for assaying oxygen active species, OASes).

SMILES: Cl.NCCCC/C=C/C(=O)O [Compound No. 4, (E)-7-amino-hept-2-enoic acid]
- inhibition at 20 pg/mL [1]: 13%
- inhibition at 0.0002 µg/mL [1]: 12%
- inhibition at 0.002 µg/mL [1]: 8%
- inhibition at 0.02 µg/mL [1]: -14%
- inhibition at 20 pg/mL (fibroblast line L929): 8.75%

SMILES: NCCC/C=C(/F)C(=O)O [Compound No. 2, (E)-6-amino-2-fluoro-hex-2-enoic acid]
- inhibition at 20 pg/mL [1]: 14%
- inhibition at 0.0002 µg/mL [1]: 19%
- inhibition at 0.002 µg/mL [1]: 14%
- inhibition at 0.02 µg/mL [1]: -13%
- inhibition at 20 pg/mL (fibroblast line L929): 7.63%

SMILES: Cl.NCCCCCCCCCCC/C=C/C(=O)O [Compound No. 11, (E)-14-amino-tetradec-2-enoic acid]
- inhibition at 20 pg/mL [1]: 20%
- inhibition at 0.0002 µg/mL [1]: 19%
- inhibition at 0.002 µg/mL [1]: 22%
- inhibition at 0.02 µg/mL [1]: 19%
- inhibition at 20 pg/mL (fibroblast line L929): -26.3%

SMILES: NCCC/C=C(\F)C(=O)O [compound 3, (Z)-6-amino-2-fluoro-hex-2-enoic acid]
- inhibition at 20 pg/mL [1]: 15%
- inhibition at 0.0002 µg/mL [1]: 11%
- inhibition at 0.002 µg/mL [1]: 5%
- inhibition at 0.02 µg/mL [1]: 1%
- inhibition at 20 pg/mL (fibroblast line L929): -4%

SMILES: Cl.NCCC/C=C/C(=O)O [Compound No. 1, (E)-6-amino-hex-2-enoic acid]
- inhibition at 20 pg/mL [1]: 12%
- inhibition at 0.0002 µg/mL [1]: 13%
- inhibition at 0.002 µg/mL [1]: 5%
- inhibition at 0.02 µg/mL [1]: 1%
- inhibition at 20 pg/mL (fibroblast line L929): 13.4%

SMILES: Cl.NCCCCCC/C=C/C(=O)O [Compound No. 8, (E)-9-amino-non-2-enoic acid]
- inhibition at 20 pg/mL [1]: 22%
- inhibition at 0.0002 µg/mL [1]: 25%
- inhibition at 0.002 µg/mL [1]: 20%
- inhibition at 0.02 µg/mL [1]: 19%
- antiradical activity and protection of cell membranes, in words (fibroblast line L929): significant antiradical activity; also recorded: most significant antiradical activity
- inhibition at 20 pg/mL (fibroblast line L929): 56.6%

SMILES: NCCCC/C=C(\F)C(=O)O [compound 6, (Z)-7-amino-2-fluoro-hept-2-enoic acid]
- inhibition at 20 pg/mL [1]: 31%
- inhibition at 0.0002 µg/mL [1]: 30%
- inhibition at 0.002 µg/mL [1]: 21%
- inhibition at 0.02 µg/mL [1]: 26%
- antiradical activity and protection of cell membranes, in words (fibroblast line L929): significant antiradical activity; also recorded: most significant antiradical activity
- inhibition at 20 pg/mL (fibroblast line L929): 49.8%

SMILES: Cl.NCCCCC/C=C/C(=O)O [Compound No. 7, (E)-8-amino-oct-2-enoic acid]
- inhibition at 20 pg/mL [1]: 31%
- inhibition at 0.0002 µg/mL [1]: 33%
- inhibition at 0.002 µg/mL [1]: 26%
- inhibition at 0.02 µg/mL [1]: 32%
- antiradical activity and protection of cell membranes, in words (fibroblast line L929): significant antiradical activity; also recorded: most significant antiradical activity
- inhibition at 20 pg/mL (fibroblast line L929): 48.3%

SMILES: Cl.NCCCCCCC=C(F)C(=O)O [Compound No. 9, 9-amino-2-fluoro-non-2-enoic acid]
- inhibition at 20 pg/mL [1]: 18%
- inhibition at 0.0002 µg/mL [1]: 20%
- inhibition at 0.002 µg/mL [1]: 23%
- inhibition at 0.02 µg/mL [1]: 18%
- antiradical activity and protection of cell membranes, in words (fibroblast line L929): significant antiradical activity
- inhibition at 20 pg/mL (fibroblast line L929): 27.5%

SMILES: NCCCCC=C(F)C(=O)O [Compound No. 5, (Z+E)-7-amino-2-fluoro-hept-2-enoic acid]
- inhibition at 20 pg/mL [1]: 18%
- inhibition at 0.0002 µg/mL [1]: 23%
- inhibition at 0.002 µg/mL [1]: 26%
- inhibition at 0.02 µg/mL [1]: 23%
- antiradical activity and protection of cell membranes, in words (fibroblast line L929): significant antiradical activity
- inhibition at 20 pg/mL (fibroblast line L929): 36.3%

SMILES: Cl.NCCCCCCCCCCCC=C(F)C(=O)O [Compound No. 10, 14-amino-2-fluoro-tetradec-2-enoic acid]
- inhibition at 20 pg/mL [1]: 20%
- inhibition at 0.0002 µg/mL [1]: 25%
- inhibition at 0.002 µg/mL [1]: 18%
- inhibition at 0.02 µg/mL [1]: 15%
- antiradical activity and protection of cell membranes, in words (fibroblast line L929): significant antiradical activity
- inhibition at 20 pg/mL (fibroblast line L929): 23.9%
